Source: publication PMC8480901 (PLoS ONE, 2021)
“And” between values parts separate entries of the source, which are not always exact repeats. Equal entries are not always repeated.

Test system: J774.2 mouse macrophages
Assay: LPS-induced cytokine and chemokine levels in J774.2 mouse macrophage cell supernatant (ELISA)
Format: cell-based
Conditions: LPS; for TNF-α / CCl2, % reduction / CCl2, Mean / GM-CSF % reduction / GM-CSF Mean / IL-1β % reduction / IL-1β Mean / IL-6 % reduction / IL-6 Mean / TNF-α % reduction / TNF-α Mean / CCl2 / CXCL1 / GM-CSF / IL-1β / IL-6: J774.2 supernatant; for TNF-α / CCl2 / CXCL1 / GM-CSF / IL-1β / IL-6 / CXCL2 / MMP9: individual replicate; for CXCL2 / MMP9: J774.2 cells

**Q.** What does the source list for `C=C[C@]1(C)C[C@@H](OC(=O)CS[C@@H]2CC[C@@H](N)C[C@H]2O)[C@]2(C)[C@H](C)CC[C@]3(CCC(=O)[C@H]32)[C@@H](C)[C@@H]1O` [Lefamulin]?
**A.** TNF-α (0.3 µM): 1489.0 pg/mL and 1477.5 pg/mL; CCl2, % reduction (1 µM): -9%; CCl2, Mean (1 µM): 39289 pg/mL; GM-CSF % reduction (1 µM): 60%; GM-CSF Mean (1 µM): 564 pg/mL; IL-1β % reduction (1 µM): -12%; IL-1β Mean (1 µM): 213 pg/mL; IL-6 % reduction (1 µM): 0.856%; IL-6 Mean (1 µM): 76721 pg/mL; TNF-α % reduction (1 µM): -11%; TNF-α Mean (1 µM): 1515 pg/mL; CCl2 (1 µM): 38237.3 pg/mL and 40341.1 pg/mL; CXCL1 (1 µM): 25.5 pg/mL and 26.1 pg/mL; GM-CSF (1 µM): 597.3 pg/mL and 530.6 pg/mL; IL-1β (1 µM): 223.29 pg/mL and 203.668 pg/mL; IL-6 (1 µM): 75165 pg/mL and 78277 pg/mL; TNF-α (1 µM): 1503.6 pg/mL and 1525.6 pg/mL; CCl2, % reduction (3 µM): -16%; CCl2, Mean (3 µM): 41389 pg/mL; GM-CSF % reduction (3 µM): 51%; GM-CSF Mean (3 µM): 681 pg/mL; IL-1β % reduction (3 µM): 12%; IL-1β Mean (3 µM): 168 pg/mL; IL-6 % reduction (3 µM): 0.505%; IL-6 Mean (3 µM): 76992 pg/mL; TNF-α % reduction (3 µM): -11%; TNF-α Mean (3 µM): 1517 pg/mL; CCl2 (3 µM): 47549.1 pg/mL and 35229.8 pg/mL; CXCL1 (3 µM): 27.5 pg/mL and 27.6 pg/mL; GM-CSF (3 µM): 645.8 pg/mL and 715.5 pg/mL; IL-1β (3 µM): 151.548 pg/mL and 184.21 pg/mL; IL-6 (3 µM): 76816 pg/mL and 77168 pg/mL; TNF-α (3 µM): 1470.9 pg/mL and 1563.2 pg/mL; CCl2, % reduction (10 µM): -20%; CCl2, Mean (10 µM): 42850 pg/mL; GM-CSF % reduction (10 µM): 25%; GM-CSF Mean (10 µM): 1034 pg/mL; IL-1β % reduction (10 µM): 16%; IL-1β Mean (10 µM): 160 pg/mL; IL-6 % reduction (10 µM): 11%; IL-6 Mean (10 µM): 69181 pg/mL; TNF-α % reduction (10 µM): -18%; TNF-α Mean (10 µM): 1616 pg/mL; CCl2 (10 µM): 49014.8 pg/mL and 36684.7 pg/mL; CXCL1 (10 µM): 35.9 pg/mL and 33.8 pg/mL; GM-CSF (10 µM): 1124.4 pg/mL and 943.6 pg/mL; IL-1β (10 µM): 178.332 pg/mL and 142.562 pg/mL; IL-6 (10 µM): 73782 pg/mL and 64579 pg/mL; TNF-α (10 µM): 1578.1 pg/mL and 1653.1 pg/mL; CCl2, % reduction (30 µM): -35%; CCl2, Mean (30 µM): 47970 pg/mL; GM-CSF % reduction (30 µM): -22%; GM-CSF Mean (30 µM): 1662 pg/mL; IL-1β % reduction (30 µM): 6%; IL-1β Mean (30 µM): 179 pg/mL; IL-6 % reduction (30 µM): 25%; IL-6 Mean (30 µM): 57940 pg/mL; TNF-α % reduction (30 µM): -31%; TNF-α Mean (30 µM): 1789 pg/mL; CCl2 (30 µM): 51706.3 pg/mL and 44234.6 pg/mL; CXCL1 (30 µM): 87.9 pg/mL and 85.2 pg/mL; GM-CSF (30 µM): 1753.9 pg/mL and 1570.0 pg/mL; IL-1β (30 µM): 181.679 pg/mL and 176.699 pg/mL; IL-6 (30 µM): 56206 pg/mL and 59673 pg/mL; TNF-α (30 µM): 1766.5 pg/mL and 1811.5 pg/mL; CCl2, % reduction (100 µM): 26%; CCl2, Mean (100 µM): 27179 pg/mL; GM-CSF % reduction (100 µM): -29%; GM-CSF Mean (100 µM): 1755 pg/mL; IL-1β % reduction (100 µM): -71%; IL-1β Mean (100 µM): 325 pg/mL; IL-6 % reduction (100 µM): 46%; IL-6 Mean (100 µM): 42097 pg/mL; TNF-α % reduction (100 µM): -249%; TNF-α Mean (100 µM): 4717 pg/mL; CCl2 (100 µM): 26262.5 pg/mL and 28095.5 pg/mL; CXCL1 (100 µM): 258.9 pg/mL and 215.6 pg/mL; GM-CSF (100 µM): 1833.3 pg/mL and 1676.9 pg/mL; IL-1β (100 µM): 330.455 pg/mL and 319.964 pg/mL; IL-6 (100 µM): 40652 pg/mL and 43542 pg/mL; TNF-α (100 µM): 4063.6 pg/mL and 5370.1 pg/mL; CXCL2 (compound 0.03 µM): 31852.1 pg/mL and 31453.1 pg/mL; MMP9 (compound 0.03 µM): 895.68 pg/mL and 982.757 pg/mL; CXCL2 (compound 0.1 µM): 30865.4 pg/mL and 29898.5 pg/mL; MMP9 (compound 0.1 µM): 770.463 pg/mL and 867.766 pg/mL; CXCL2 (compound 0.3 µM): 32714.1 pg/mL and 32124.3 pg/mL; MMP9 (compound 0.3 µM): 798.08 pg/mL and 882.55 pg/mL; CXCL2 (compound 1 µM): 35082.5 pg/mL and 36713.0 pg/mL; MMP9 (compound 1 µM): 879.359 pg/mL and 1004.8 pg/mL; CXCL2 (compound 3 µM): 37039.4 pg/mL and 32794.8 pg/mL; MMP9 (compound 3 µM): 913.107 pg/mL and 886.534 pg/mL; CXCL2 (compound 10 µM): 36052.8 pg/mL and 33589.2 pg/mL; MMP9 (compound 10 µM): 894.885 pg/mL and 781.214 pg/mL; CXCL2 (compound 30 µM): 37378.3 pg/mL and 38345.7 pg/mL; MMP9 (compound 30 µM): 446.696 pg/mL and 398.398 pg/mL; CXCL2 (compound 100 µM): 37906.2 pg/mL and 37582.2 pg/mL; MMP9 (compound 100 µM): 104.703 pg/mL and 78.135 pg/mL
